Article PMC10447463, “Data-mining unveils structure–property–activity correlation of viral infectivity enhancing self-assembling peptides” (Nature Communications, 2023)

Tests used:
[1] = system: HIV-1 infection of TZM-bl cells; test: HIV-1 infectivity enhancement assay, β-galactosidase luminescence; type: cell-based; conditions: for Rel-EFC: infection relative to EF-C (QCKIKQIINMWQ = 1); for Log10 Infection Rel EFC: log10 of infection relative to EF-C; for Log Infectivity: Fig. S7 panel A (plotted against β-sheet content), Log10 infection relative to EF-C, asymmetric std dev errors; for Log10 Infection Rel EF-C: HIV-1 infection of TZM-bl cells; for Log10 of Rel to EFC (Feb2021): Log10 of infection relative to EF-C; for Abs. Inf.: β-galactosidase luminescence; for Abs. Inf. / RLU s-1: absolute infection rate, peptide 1.3 µM on cells, virus preincubated 10 min with fibrils, read 3 days post infection, mean of triplicate
[2] = Turbidity, derived count rate of scattered light; type: physicochemical; conditions: for Count Rate: derived count rate of scattered light (turbidity); for Log10 Count Rate: turbidity, derived count rate of scattered light, data of Figure 2D
[3] = Log10 of infection rate relative to EF-C, Figure 3A source data
[4] = infection rate relative to EF-C, log10, data of Figure 2D
[5] = infection rate relative to EF-C, log10, source data of Figure 2C
[6] = absolute HIV-1 infection signal, TZM-bl cells
[7] = HIV-1 infection relative to EF-C, Fig 23 plot, panels A and B, mean of 3 values
[8] = HIV-1 infection relative to EF-C, Fig 23 plot, single data point, replicate 2
[9] = HIV-1 infection relative to EF-C, Fig 23 plot, single data point, replicate 3
[10] = n-fold infection vs virus only, relative to that of EF-C, 1.3 µM peptide
[11] = second listing, peptides with TEM 2cat 0

Substance | Rel-EFC ([1]; 1.3 µM peptide) | Log10 Infection Rel EFC ([1]; 1.3 µM peptide) | Log Infectivity ([1]; TZM-bl cells) | Log10 Infection Rel EF-C [1, 3] | Log10 Infection Rel EF-C [1, 4] | Log10 Infection Rel EF-C [1, 5] | Log10 of Rel to EFC (Feb2021) ([1]; all peptides of FigS16) | Abs. Inf. [1, 6] | Count Rate [2] | Log10 Count Rate [2] | Inf. rel. EF-C [1, 7] | Inf. rel. EF-C ([1]; HIV-1 infection relative to EF-C, Fig 23 plot, single data point, replicate 1) | Inf. rel. EF-C [1, 8] | Inf. rel. EF-C [1, 9] | Abs. Inf. / RLU s-1 [1] [RLU s-1] | Inf. rel. EF-C [1, 10] | Log10 of Rel to EFC (Feb2021) [1, 11] | Abs. Inf. ([1]; absolute infection signal, HIV-1 on TZM-bl cells) | Log10 Inf. rel. to EF-C ([1]; log10 of HIV-1 infection of TZM-bl cells relative to EF-C (EF-C = 0))
KFKQFFINMWQ | 0,92 | -0,04 | -0.03603 | -0.04 | -0.03603 | -0.03603 | -0.04 | 14953.33333 | 8996 | 3.954 | – | – | – | – | – | – | – | – | –
KIKIQINMWQRGD | 0,01 | -1,92 | -1.917 | -1.92 | -1.917 | -1.917 | – | 196.7 | 2783 | 3.445 | 0.008366 | 0.00461 | 0.009457 | 0.01103 | 197 | 0.01 | – | – | –
KIKIQIRGD | 0,02 | -1,68 | -1.678 | -1.68 | -1.678 | -1.678 | – | – | 114 | 2.057 | – | – | – | – | – | – | – | – | –
KIKIQIMQWN | 0,72 | -0,15 | -0.1454 | -0.15 | -0.1454 | -0.1454 | -0.15 | 11623.33333 | 2202.7 | 3.343 | – | – | – | – | – | – | – | – | –
KIEIQINM | 0,03 | -1,46 | -1.458 | -1.46 | -1.458 | -1.458 | – | – | 274.8 | 2.439 | – | – | – | – | – | – | – | – | –
HHHHKAKAKAKAWWWW | 0,09 | -1,05 | -1.048 | -1.05 | -1.048 | -1.048 | – | 3233 | 658.9 | 2.8188 | – | – | – | – | – | – | – | – | –
KLKLQLL | 0,01 | -2,16 | -2.156 | -2.16 | -2.156 | -2.156 | – | – | 72.67 | 1.861 | – | – | – | – | – | – | – | – | –
KIKIQINMWWQ | 3,21 | 0,51 | 0.5063 | 0.51 | 0.5063 | 0.5063 | 0.51 | 17976.66667 | 3893 | 3.59 | – | – | – | – | – | – | 0.51 | – | –
KFKFQFN | 0,02 | -1,74 | -1.744 | -1.74 | -1.744 | -1.744 | – | – | 50.7 | 1.705 | 0.01184 | – | 0.01096 | 0.005798 | 270 | 0.02 | – | 270 | -1.744
MKIKIQINMWQ | 0,42 | -0,38 | -0.378 | -0.38 | -0.378 | -0.378 | -0.38 | – | 1475 | 3.169 | – | – | – | – | – | – | – | – | –
KLKLKLQL | 0,1 | -1,01 | -1.009 | -1.01 | -1.009 | -1.009 | – | – | 42.87 | 1.632 | – | – | – | – | – | – | – | – | –
KVKVQVVV | 0,04 | -1,46 | -1.455 | -1.46 | -1.455 | -1.455 | – | – | 163.1 | 2.213 | – | – | – | – | – | – | – | – | –
KIKIKIQINMWQ | 0,79 | -0,1 | -0.1048 | -0.1 | -0.1048 | -0.1048 | -0.1 | 20353.33333 | 1603.1 | 3.205 | – | – | – | – | – | – | – | – | –
KIKIKIKIWWWW | 0,59 | -0,23 | -0.2301 | -0.23 | -0.2301 | -0.2301 | -0.23 | – | 12420.6 | 4.094 | – | – | – | – | – | – | -0.23 | – | –
KFKFQFW | 0,16 | -0,79 | -0.7899 | -0.79 | -0.7899 | -0.7899 | -0.79 | 4953 | 121.9 | 2.086 | – | – | – | – | – | – | – | – | –
KIKIQINMWWWQ | 2,75 | 0,44 | 0.4391 | 0.44 | 0.4391 | 0.4391 | 0.44 | 15400 | 7596.3 | 3.8806 | – | – | – | – | – | – | 0.44 | – | –
KAKAKAQA | 0,01 | -2,06 | -2.06 | -2.06 | -2.06 | -2.06 | – | – | 76.93 | 1.886 | – | – | – | – | – | – | – | – | –
ILKNLSRSRKIKIQIC | 0,34 | -0,47 | -0.4741 | -0.47 | -0.4741 | -0.4741 | -0.47 | – | 2392 | 3.379 | – | – | – | – | – | – | – | – | –
CKIKQIIRGD | 0,05 | -1,31 | – | -1.31 | -1.311 | -1.311 | – | – | 3495 | 3.544 | – | – | – | – | – | – | – | – | –
KFKFEFEF | 0,03 | -1,55 | -1.547 | -1.55 | -1.547 | -1.547 | – | – | 2186 | 3.34 | – | – | – | – | – | – | – | – | –
KVKVQVV | 0,01 | -2,04 | -2.04 | -2.04 | -2.04 | -2.04 | – | – | 27.73 | 1.443 | – | – | – | – | – | – | – | – | –
KIKIQIMWNQ | 0,56 | -0,25 | -0.2495 | -0.25 | -0.2495 | -0.2495 | -0.25 | 9147 | 1887 | 3.2757 | – | – | – | – | – | – | – | – | –
KIKIQII | 0,02 | -1,73 | -1.729 | -1.73 | -1.729 | -1.729 | – | – | 1039 | 3.017 | – | – | – | – | – | – | – | – | –
MKIKIQINM | 0,27 | -0,56 | -0.5635 | -0.56 | -0.5635 | -0.5635 | -0.56 | – | 981.3 | 2.9918 | – | – | – | – | – | – | – | – | –
